Patent US4883815A, “Hydrocinnamic acid derivatives” (Hoffmann-La Roche Inc., priority 1987, dated 1989)

Assay: acute toxicity, single oral administration
Conditions: mouse, in vivo, po
From the text: Moreover, the Table contains data for the acute toxicity (LD50 in mg/kg in the case of single oral administration to mice).

`CCCCCCCOC(=O)CCc1cc(Cl)ccc1C(=O)CCCNC(C)=O` [H H Cl H H O(CH2)6CH3 CH3 H H Oxo] and `CC(=O)NCCCC(=O)c1ccc(Cl)cc1CCC(N)=O` [Example 19, 2-(4-acetamidobutyryl)-5-chlorohydrocinnamide] cannot be ordered by LD50: > 5000 mg/kg for the first, > 4000 mg/kg for the second.

Same assay, conditions: mouse, in vivo; acute toxicity, single oral administration to mice

`CC(=O)NCCCC(=O)c1ccc(Cl)cc1CCC(=O)OC(C)C` [Example 4, isopropyl 2-(4-acetamidobutyryl)-5-chlorohydrocinnamate] and `CCOC(=O)CCc1cc(Cl)ccc1C(=O)CCCNC(C)=O` [Example 2, ethyl 2-(4-acetamidobutyryl)-5-chloro-hydrocinnamate] cannot be ordered by LD50: > 4000 mg/kg for the first, > 5000 mg/kg for the second.

`CCOC(=O)CC[C@H](NC(=O)CCc1cc(Cl)ccc1C(=O)CCCNC(C)=O)C(=O)OCC` [Example 29, diethyl N-[2-(4-acetamidobutyryl)-5-chlorohydrocinnamoyl]-L-glutamate] and `CCOC(=O)CCc1cc(Cl)ccc1C(=O)CCCNC(=O)CCCNC(C)=O` [Example 8, ethyl 2-[4-(4-acetamidobutyramido)butyryl]-5-chlorohydrocinnamate] cannot be ordered by LD50: > 5000 mg/kg for the first, > 5000 mg/kg for the second.

`CCOC(=O)CNC(=O)CCc1cc(Cl)ccc1C(=O)CCCNC(C)=O` [Example 30, ethyl N-[2-(4-acetamidobutyryl)-5-chlorohydrocinnamoyl]-glycinate] and `CCCOC(=O)CCc1cc(Cl)ccc1C(=O)CCCNC(C)=O` [Example 3, propyl 2-(4-acetamidobutyryl)-5-chlorohydrocinnamate] cannot be ordered by LD50: > 5000 mg/kg for the first, > 5000 mg/kg for the second.
